Measured values: US20220411362A1, “DITERPENOID COMPOUNDS THAT ACT ON PROTEIN KINASE C (PKC)” (K-Gen, Inc., priority 2019, published 2022)
Where two headings read alike, the source gives them in different places.

Legend:
[1] = biological target: T1, C1b domain of human PKCδ (Homo sapiens, UniProt Q05655); test: Competitive 3H-PDBu binding to C1b domain of PKCδ; settings: 3H-PDBu competition
T1 construct: Genes encoding C1b domains of human PKCα, δ, ε, θ, and PKD1 (PKCμ) were synthesized; made in house; host or cells: E. coli BL21(DE3)
Experimental: (§1) Compounds described in this disclosure were tested for binding affinity to C1b domain of PKC isoforms. Compound binding affinity to C1b domain of PKC isoforms was derived from competitive binding assay using radioactive tracer ^3H-PDBu and recombinant GST-C1b or full-length of human PKC proteins based on modified procedures from Methods in Molecular Biology, vol.
(§2) Genes encoding C1b domains of human PKCα, δ, ε, θ, and PKD1 (PKCμ) were synthesized and inserted into pGEX-2TK or pGEX-4T1 vectors for expression and production of GST-C1b proteins in E. coli BL21(DE3) via IPTG induction. The target proteins were purified by glutathione sepharose 4B and followed by ion exchange chromatography if needed to achieve purity >70%. Aliquots of the purified proteins were stored at −80 degree for binding assay (storage buffer: 20 mM Tris pH 8.0, 200 mM NaCl, 10% glycerol, 1 mM DTT).
(§3) The plate was incubated at 37° C. on a shaker at 300 rpm for 10 minutes and then put on ice for 20 minutes. […] The bottom of the filter plate was sealed and 50 μL of MicroScint-20 (PerkinElmer) cocktail was added to each well. ^3H-PDBu trapped in each well was counted using PerkinElmer MicroBeta2 Reader. Data were analyzed using GraphPad Prism5 with the model “log(inhibitor) vs. response-variable slope” to fit the IC50, and then IC50 was transformed to Ki using Cheng-Prusoff equation: Ki=IC50/(1+added radio ligand/Kd). Kd is the binding affinity of each protein preparation to ^3H-PDBu, determined experimentally.

[2] = biological target: T2, C1b domain of human PKCα (Homo sapiens, UniProt P17252); test: biochemical; assay type: binding; settings: 3H-PDBu competition
T2 construct: Genes encoding C1b domains of human PKCα, δ, ε, θ, and PKD1 (PKCμ) were synthesized; made in house; host or cells: E. coli BL21(DE3)
Experimental: as §1, §2
The plate was incubated at 37° C. on a shaker at 300 rpm for 10 minutes and then put on ice for 20 minutes. […] The bottom of the filter plate was sealed and 50 μL of MicroScint-20 (PerkinElmer) cocktail was added to each well. ^3H-PDBu trapped in each well was counted using PerkinElmer MicroBeta2 Reader. […] Kd is the binding affinity of each protein preparation to ^3H-PDBu, determined experimentally.

[3] = biological target: T3, C1b domain of human PKCθ (Homo sapiens, UniProt Q04759); test: Competitive 3H-PDBu binding to C1b domain of PKCθ
T3 construct: Genes encoding C1b domains of human PKCα, δ, ε, θ, and PKD1 (PKCμ) were synthesized; made in house; host or cells: E. coli BL21(DE3)
T3 sequence (Q04759 231-281 limits assumed): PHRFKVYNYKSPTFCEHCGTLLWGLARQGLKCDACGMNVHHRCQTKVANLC
Experimental: as §1, §2, §3

[4] = biological target: T4, C1b domain of human PKCε (Homo sapiens, UniProt Q02156); test: Competitive 3H-PDBu binding to C1b domain of PKCε
T4 construct: Genes encoding C1b domains of human PKCα, δ, ε, θ, and PKD1 (PKCμ) were synthesized; made in house; host or cells: E. coli BL21(DE3)
Experimental: as §1, §2, §3

[5] = biological target: T5, C1b domain of human PKD1 (PKCμ) (Homo sapiens, UniProt Q15139); test: biochemical; assay type: binding
T5 construct: Genes encoding C1b domains of human PKCα, δ, ε, θ, and PKD1 (PKCμ) were synthesized; made in house; host or cells: E. coli BL21(DE3)
T5 sequence (Q15139 270-320 limits assumed): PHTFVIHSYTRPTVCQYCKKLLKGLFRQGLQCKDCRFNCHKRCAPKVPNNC
Experimental: as §1, §2, §3

[6] = tested on: A549 non-small cell lung cancer cell line; test: Proliferation of A549 (CellTiter Glo); assay type: cell-based; settings: Homo sapiens, read-out: IC50 μM (A549 Cell Line)
Experimental: (§4) The diterpenoid compounds were tested in A549, a non-small cell lung cancer cell line harboring a K-Ras activating mutation. Briefly, A549 cells at a density of 1,000 cells/well were seeded in 96-well plates and incubated at 37° C. for 24 hours. A series of different concentrations of compound stocks (500×) were prepared by 3-fold serial dilution in DMSO. These compounds were further diluted in culture media and then added to cells so that the final DMSO concentration was not exceeding 0.25%. After 96 hours of incubation, 50 μL of CellTiter Glo reagent (Promega) was added to each well and luminescence was measured after 10 minutes using EnVision (PerkinElmer). Luminescence from cells treated with DMSO alone was set as Max and % of inhibition was calculated as follows: Inhibition %=(Max−Sample value)/Max×100. Data was analyzed using XL-fit software (ID Business Solutions Ltd.) and IC50, relative IC50, and % of top inhibition was calculated. Some of the compounds in this disclosure were very potent in blocking proliferation of A549 lung cancer cells at low nM range. In addition, potency of inhibiting A549 proliferation correlated well with its binding affinity to PKCs for this series of compounds. In other words, higher affinity binders had stronger inhibitory effects on A549 proliferation. This further support the notion that activation, rather than inhibition, of certain PKC isoforms is required to block proliferation of cancer cells, some of which may harbor K-Ras mutations. This is in sharp contrast to previous literature and common belief that inhibition of PKC is necessary to block cancer cell growth (Kang, 2014, New Journal of Science, 2014:1-36). Data presented here is in agreement with recent findings that many loss-of-function but not gain-of-function mutations of PKC isoforms have been identified in many human cancers (Antal et al., 2015, Cell, 160:489-502).

[7] = tested on: HL-60 (Leukemia) cell line; test: Proliferation of HL-60; assay type: cell-based
Experimental: as §4
(§5) The compounds in this disclosure were tested for their potency in blocking proliferation of a few other cancer cells lines, including K-Ras mutant pancreatic cell lines Panc2.13 and KP-4, leukemia cell line HL-60, and lymphoma cell lines Namalwa and Mino. Similar procedures as in Example 67 were followed. Initial cell numbers seeded in 96-well plates were different for different cell lines: 3000 cells/well for Panc2.13; 800-1000 cells/well for KP-4; 5000 cells/well for HL-60; 5000-10000 cells/well for Namalwa and Mino. A ratio ratio of (IC50 of K01)/(IC50 of compound) (data in parenthesis in Table 5) was used to normalize the compound potency from different assay batches to a common comparator […].

[8] = tested on: Namalwa (Lymphoma) cell line; test: Proliferation of Namalwa; assay type: cell-based; settings: for ratio of (IC50 of K01)/(IC50 of compound), Namalwa: value in parenthesis; for IC50: read-out: IC50 in μM Namalwa (Lymphoma)
Experimental: as §4, §5

[9] = tested on: Mino (Lymphoma) cell line; test: Proliferation of Mino; assay type: cell-based
Experimental: as §4, §5

[10] = tested on: Panc2.13 (Pancreatic) cell line; test: Proliferation of Panc2.13; assay type: cell-based; settings: for ratio of (IC50 of K01)/(IC50 of compound), Panc2.13: value in parenthesis; for IC50: read-out: IC50 in μM Panc2.13 (Pancreatic)
Experimental: as §4, §5

[11] = tested on: KP-4 (Pancreatic) cell line; test: Proliferation of KP-4; assay type: cell-based; settings: Homo sapiens, KP-4, read-out: IC50 in μM KP-4 (Pancreatic)
Experimental: as §4, §5

[12] = Homo sapiens, HL-60, read-out: IC50 in μM HL-60 (Leukemia)
[13] = Homo sapiens, MINO, read-out: IC50 in μM Mino (Lymphoma)

T4 sequence (Q02156 242-292 limits assumed): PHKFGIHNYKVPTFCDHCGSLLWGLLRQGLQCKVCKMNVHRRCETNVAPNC
T1 sequence (Q05655 230-280 limits assumed): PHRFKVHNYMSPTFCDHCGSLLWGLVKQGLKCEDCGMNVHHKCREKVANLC

Row | SMILES | Ki ([1]; Ki PKCδ) [nM] | Ki ([2]; Ki PKCα) [nM] | Ki [3] [nM] | Ki [4] [nM] | Ki [5] [nM] | IC50 ([6]; A549, 96 h) [µM] | ratio of (IC50 of K01)/(IC50 of compound), HL-60 ([7]; HL-60; value in parenthesis) | IC50 [7, 12] [µM] | ratio of (IC50 of K01)/(IC50 of compound), Namalwa [8] | IC50 [8] [µM] | IC50 [9, 13] [µM] | ratio of (IC50 of K01)/(IC50 of compound), Mino ([9]; Mino; value in parenthesis) | other results
1 | CC1=C[C@H]2[C@@]3(O)[C@H](C)C[C@]4(OC(=O)CCC5CCCC5)[C@H]([C@@H]3C=C(CO)C[C@]2(O)C1=O)C4(C)C [Compound K101-C1301] | 5 to 10 | 100 to 200 | 1 to 30 | 5 to 10 | < 5 | 0.03 to 0.06 | 9.23 | 0.03 to 0.06 | 1.73 | 0.03 to 0.06 | 0.001 to 0.01 | 11 | 
2 | CC1=C[C@H]2[C@@]3(O)[C@H](C)C[C@]4(OC(=O)CCc5ccc(C(F)(F)F)cc5)[C@H]([C@@H]3C=C(CO)C[C@]2(O)C1=O)C4(C)C [Compound K101-C1302] | < 5 | 30 to 60 | < 5 | < 5 | < 5 | 0.01 to 0.03 | 72 | 0.001 to 0.01 | 13.8 | 0.001 to 0.01 | < 0.001 | 75 | 
3 | CC1=C[C@H]2[C@@]3(O)[C@H](C)C[C@]4(OC(=O)Cc5ccccc5)[C@H]([C@@H]3C=C(CO)C[C@]2(O)C1=O)C4(C)C [Compound K101-C1304] |  |  |  |  |  |  | 18 |  | 3.29 | 0.01 to 0.03 |  | 15.6 | Ki ([1]; read-out: Ki PKCδ): 5 to 10 nM; Ki ([2]; read-out: Ki PKCα): 100 to 200 nM; Ki ([3]; C1b domain of human PKCθ, 3H-PDBu competition, read-out: Ki PKCθ): 5 to 10 nM; Ki ([4]; C1b domain of human PKCε, 3H-PDBu competition, read-out: Ki PKCε): 1 to 30 nM; Ki ([5]; C1b domain of human PKD1 (PKCμ), 3H-PDBu competition, read-out: Ki PKD1/PKCμ): < 5 nM; IC50 ([6]; A549, 96 hours incubation, CellTiter Glo): 0.03 to 0.06 µM; IC50 ([7]; Homo sapiens, HL-60; read-out: IC50 in μM HL-60 (Leukemia)): 0.01 to 0.03 µM; IC50 ([9]; Homo sapiens, MINO; read-out: IC50 in μM Mino (Lymphoma)): 0.001 to 0.01 µM
4 | CC1=C[C@H]2[C@@]3(O)[C@H](C)C[C@]4(OC(=O)[C@@H](N)CCc5ccccc5)[C@H]([C@@H]3C=C(CO)C[C@]2(O)C1=O)C4(C)C [Compound K101-C1318] | 5 to 10 | 100 to 200 | 1 to 30 | 30 to 60 | < 5 | 0.1 to 0.2 | 3.21 | 0.1 to 0.2 | 0.93 | 0.06 to 0.1 | 0.01 to 0.03 | 3.18 | ratio of (IC50 of K01)/(IC50 of compound), Panc2.13 [10]: 4.28; IC50 [10]: 0.2 to 0.6 µM; IC50 [11]: 0.1 to 0.2 µM
5 | CC1=C[C@H]2[C@@]3(O)[C@H](C)C[C@]4(OC(=O)CCCc5ccccc5)[C@H]([C@@H]3C=C(CO)C[C@]2(O)C1=O)C4(C)C [Compound K101-C1324] | < 5 | 100 to 200 | < 5 | < 5 | < 5 | 0.01 to 0.03 | 32.7 | 0.01 to 0.03 | 8.63 | 0.001 to 0.01 | 0.001 to 0.01 | 37.5 | 
6 | CC1=C[C@H]2[C@@]3(O)[C@H](C)C[C@]4(OC(=O)[C@@H](N)Cc5ccc(C(F)(F)F)cc5)[C@H]([C@@H]3C=C(CO)C[C@]2(O)C1=O)C4(C)C [Compound K101-C1342] | 5 to 10 | 100 to 200 |  |  | < 5 | 0.06 to 0.1 | 6.43 | 0.03 to 0.06 | 1.68 | 0.03 to 0.06 | 0.01 to 0.03 | 6.2 | ratio of (IC50 of K01)/(IC50 of compound), Panc2.13 [10]: 6.79; IC50 [10]: 0.1 to 0.2 µM; IC50 [11]: 0.06 to 0.1 µM
7 | CC1=C[C@H]2[C@@]3(O)[C@H](C)C[C@]4(OC(=O)[C@H](N)C(C)(C)c5ccc(C(F)(F)F)cc5)[C@H]([C@@H]3C=C(CO)C[C@]2(O)C1=O)C4(C)C [Compound K101-C134901] | 1 to 30 | 200 to 400 | 1 to 30 | 1 to 30 | 5 to 10 | 0.2 to 0.6 | 2.75 | 0.1 to 0.2 | 0.49 | 0.1 to 0.2 | 0.01 to 0.03 | 3.88 | 
8 | CC1=C[C@H]2[C@@]3(O)[C@H](C)C[C@]4(OC(=O)[C@@H](N)C(C)(C)c5ccc(C(F)(F)F)cc5)[C@H]([C@@H]3C=C(CO)C[C@]2(O)C1=O)C4(C)C [Compound K101-C134902] | < 5 | 30 to 60 | 5 to 10 | 1 to 30 | < 5 | 0.03 to 0.06 | 12 | 0.01 to 0.03 | 3.5 | 0.01 to 0.03 | 0.001 to 0.01 | 15.7 | 
9 | CC1=C[C@H]2[C@@]3(O)[C@H](C)C[C@]4(OC(=O)[C@H](N)CCCCCCc5ccc(C(F)F)cc5)[C@H]([C@@H]3C=C(CO)C[C@]2(O)C1=O)C4(C)C [Compound K101-C137001] | 1 to 30 | 800 to 1000 | 30 to 60 | 30 to 60 | 1 to 30 | 0.1 to 0.2 |  |  |  |  |  |  | 
10 | CC1=C[C@H]2[C@@]3(O)[C@H](C)C[C@]4(OC(=O)[C@@H](N)CCCCCCc5ccc(C(F)F)cc5)[C@H]([C@@H]3C=C(CO)C[C@]2(O)C1=O)C4(C)C [Compound K101-C137002] | 1 to 30 | 200 to 400 | 1 to 30 | 30 to 60 | 5 to 10 | 0.1 to 0.2 |  |  |  |  |  |  | 
